# Measured values taken from US20090269394A1, “METHODS AND COMPOSITIONS FOR TREATING ONCHOMYCOSIS” (priority 2008, published 2009).
# Like-named read-outs stand apart in the source and are kept apart here.
# Columns and labels:
# [1] = test system: T. violaceum; test: MIC against species that cause tinea capitis; type: cell-based; conditions: T. violaceum n = 10
# [2] = test system: M. audouinii; test: MIC against species that cause tinea capitis; type: cell-based; conditions: M. audouinii n = 10
# [3] = test system: Candida albicans isolates; test: MIC/MFC microtiter broth dilution; type: cell-based; conditions: NB-002 as μg CPC/ml; for MIC90: Candida albicans, read-out: MIC90
# [4] = test system: Microsporum canis; test: MIC/MFC microtiter broth dilution; type: cell-based
# [5] = test system: Epidermophyton floccosum; test: MIC/MFC microtiter broth dilution; type: cell-based; conditions: n = 6 isolates; NB-002 as μg CPC/ml
# [6] = test system: Aspergillus spp.; test: MIC against rare onychomycosis pathogens (CLSI M 38-A); type: cell-based; conditions: 5 isolates; NB-002 as μg CPC/ml
# Excerpt: (§1) Methods: All fungi were from patients, many of which had onychomycosis or another tinea infection.
# [7] = test system: Curvularia spp.; test: as above; type: cell-based; conditions: 3 isolates; NB-002 as μg CPC/ml
# Excerpt: as §1
# [8] = test system: Scedosporium spp.; test: as above; type: cell-based; conditions: 5 isolates; NB-002 as μg CPC/ml
# Excerpt: as §1
# [9] = test system: Acremonium spp.; test: as above; type: cell-based; conditions: 5 isolates; NB-002 as μg CPC/ml
# Excerpt: as §1
# [10] = test system: Phoma sp.; test: as above; type: cell-based; conditions: 3 isolates; NB-002 as μg CPC/ml
# Excerpt: as §1
# [11] = test system: Epicoccum nigrum; test: as above; type: cell-based; conditions: 3 isolates; NB-002 as μg CPC/ml
# Excerpt: as §1
# [12] = test system: Trichophyton verrucosum; test: as above; type: cell-based; conditions: 3 isolates; NB-002 as μg CPC/ml
# Excerpt: as §1
# [13] = test system: Chaetomium spp.; test: as above; type: cell-based; conditions: 3 isolates; NB-002 as μg CPC/ml
# Excerpt: as §1
# [14] = test system: Trichophyton soundanense; test: as above; type: cell-based; conditions: 3 isolates; NB-002 as μg CPC/ml
# Excerpt: as §1
# [15] = test system: Paecilomyces spp.; test: as above; type: cell-based; conditions: 4 isolates; NB-002 as μg CPC/ml
# Excerpt: as §1
# [16] = test system: Alternaria spp.; test: as above; type: cell-based; conditions: 3 isolates; NB-002 as μg CPC/ml
# Excerpt: as §1
# [17] = test system: Trichophyton rubrum; test: microbe, parasite or virus in culture; type: cell-based
# Method: (§2) Phenotypically resistant isolates were tested for MICs and compared to parental MICs.
# [18] = test system: Trichophyton mentagrophytes; test: microbe, parasite or virus in culture; type: cell-based
# Method: as §2
# [19] = test system: Epidermophyton floccosum; test: microbe, parasite or virus in culture; type: cell-based; conditions: read-out: Final MIC
# Method: as §2
# [20] = test system: Trichophyton rubrum; type: cell-based; conditions: 10^7 conidia plated; NBD031-c; drug plate 0.125 μg/ml
# [21] = test system: Trichophyton mentagrophytes; type: cell-based; conditions: 10^7 conidia plated; NBD012-d; drug plate 0.0625 μg/ml
# [22] = test system: Trichophyton mentagrophytes; test: MIC/MFC microtiter broth dilution; type: cell-based
# [23] = test system: Trichophyton tonsurans; test: MIC/MFC microtiter broth dilution; type: cell-based
# [24] = test system: T. rubrum; test: Time-kill experiments on mycelia and microconidia; type: cell-based, Trichophyton rubrum; conditions: 16×MIC, up to 24 hours, nongrowth conditions (FIG. 10)
# Method: Time-kill experiments. […] Part of the conidial suspension was pelleted and resuspended in RPMI 1640 medium and grown for 16-18 hours overnight at room temperature to allow germination of microconidia. After germination, the hyphae were collected by centrifugation and resuspended in distilled water. […] Colony-forming units were counted after four days of incubation at 35° C.
# [25] = Azole-Resistant isolates (n = 24)
# [26] = Azole-Susceptible isolates (n = 10)
# [27] = M. canis (n = 5), NB-002 as μg CPC/ml
# [28] = M. canis n = 10 (tinea capitis species)
# [29] = n = 14 isolates, NB-002 as μg CPC/ml
# [30] = T. tonsurans (n = 6), NB-002 as μg CPC/ml
# [31] = T. tonsurans n = 10 (tinea capitis species)
structure (smiles),measurement,setting,value
CN(C/C=C/C#CC(C)(C)C)Cc1cccc2ccccc12 [Terbinafine],MIC50,[1],0.03 µg/mL
same,MIC90,[1],0.03 µg/mL
same,MIC range,[1]; in µg/mL,0.008-0.03
same,MIC50,[2],0.06 µg/mL
same,MIC90,[2],0.06 µg/mL
same,MIC range,[2]; in µg/mL,0.03-0.06
same,MFC90,[3]; [25],>1 µg/mL
same,MFC90,[3]; [26],>1 µg/mL
same,MIC90,[3]; [25],> 1 µg/mL
same,MIC90,[3]; [26],> 1 µg/mL
same,MFC Range,[4]; [27],0.06 to 0.12 µg/mL
same,MIC range,[4]; [27],0.004 to 0.03 µg/mL
same,MIC50,[4]; [28],0.06 µg/mL
same,MIC90,[4]; [28],0.06 µg/mL
same,MIC range,"[4]; M. canis n = 10 (tinea capitis species), in µg/mL",0.06
same,MFC Range,[5],0.0313 to 1 µg/mL
same,MIC range,[5],0.0625 to 0.25 µg/mL
same,MIC range,[6],0.03 to 0.25 µg/mL
same,MIC range,[7],0.03 to 1 µg/mL
same,MIC range,[8],>2 µg/mL
same,MIC range,[9],0.125 to 1 µg/mL
same,MIC range,[10],0.03 µg/mL
same,MIC range,[11],0.03 to 0.06 µg/mL
same,MIC range,[12],≦0.004-0.015 ug/ml
same,MIC range,[13],1 to 2 µg/mL
same,MIC range,[14],≦0.004 ug/ml
same,MIC range,[15],0.25 to 0.5 µg/mL
same,MIC range,[16],1 to 2 µg/mL
same,MIC,"[17]; read-out: Final MIC, isolate NBD031-a, selected on NB-002 drug plate 16 μg/ml",0.016 µg/mL
same,MIC,"[17]; read-out: Final MIC, isolate NBD031-b, selected on itraconazole drug plate 0.125 μg/ml",0.016 µg/mL
same,MIC,"[17]; read-out: Final MIC, isolate NBD031-c, selected on terbinafine drug plate 0.125 μg/ml",0.016 µg/mL
same,MIC,"[18]; read-out: Final MIC, isolate NBD012-a, selected on NB-002 drug plate 8 μg/ml",0.031 µg/mL
same,MIC,"[18]; read-out: Final MIC, isolate NBD012-b, selected on NB-002 drug plate 16 μg/ml",0.031 µg/mL
same,MIC,"[18]; read-out: Final MIC, isolate NBD012-c, selected on NB-002 drug plate 32 μg/ml",0.016 µg/mL
same,MIC,"[18]; read-out: Final MIC, isolate NBD012-d, selected on terbinafine drug plate 0.0625 μg/ml",0.031 µg/mL
same,MIC,"[18]; read-out: Final MIC, isolate NBD013-a, selected on itraconazole drug plate […]",0.016 µg/mL
same,MIC,"[18]; read-out: Final MIC, isolate NBD014-a, selected on NB-002 drug plate 32 μg/ml",0.016 µg/mL
same,MIC,[19],0.016 µg/mL
same,# CFU recovered,[20],1
same,# CFU recovered,[21],2
same,MIC90,[22]; Trichophyton mentagrophytes,0.125 µg/mL
same,MIC50,"[22]; Trichophyton mentagrophytes, read-out: MIC50",0.0313 µg/mL
same,MFC50,[22]; [29],0.25 µg/mL
same,MFC90,[22]; [29],>1 µg/mL
same,MIC range,[22]; [29],0.0313 to 0.25 µg/mL
same,MFC Range,[23]; [30],0.06 to 0.12 µg/mL
same,MIC range,[23]; [30],0.008 to 0.015 µg/mL
same,MIC50,[23]; [31],0.016 µg/mL
same,MIC90,[23]; [31],0.016 µg/mL
same,MIC range,"[23]; T. tonsurans n = 10 (tinea capitis species), in µg/mL",0.008-0.016
same,reduction of colony counts / activity on mycelia and microconidia,[24],no activity
